Reference: patent publication US10131652B2, “Pyrimidinyloxy benzene derivatives as herbicides” (E. I. DU PONT DE NEMOURS AND COMPANY, priority 2014, dated 2018)
Where two headings read alike, the source gives them in different places.

Columns and labels:
Experiment in all cases: Test F pre-/postemergence plant response
Format in all cases: in vivo
[1] = test system: johnsongrass (Sorghum halepense); conditions: Sorghum halepense, pre-emergence, scale 0 to 100, read-out: Plant response rating, Johnsongrass
Procedure, shortened: (§1)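 Seeds were sown in silt loam and sprayed preemergence; in parallel, plants at 2–18 cm (1- to 4-leaf) received postemergence sprays. Test chemicals were in a non-phytotoxic solvent with surfactant. After 14–21 days in the greenhouse, injury was rated visually against controls on a 0–100 scale (100 = complete control).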

[2] = test system: large (Lg) crabgrass (Digitaria sanguinalis); conditions: Digitaria sanguinalis, pre-emergence, scale 0 to 100, read-out: Plant response rating, Crabgrass, Large
Procedure, shortened: as §1

[3] = test system: morningglory (Ipomoea coccinea); conditions: Ipomoea, pre-emergence, scale 0 to 100, read-out: Plant response rating, Morningglory
Procedure, shortened: as §1

[4] = test system: palmer pigweed (Amaranthus palmeri); conditions: Amaranthus palmeri, scale 0 to 100, read-out: Plant response rating, Pigweed, Palmer
Procedure, shortened: as §1

[5] = test system: ragweed (common ragweed, Ambrosia elatior); conditions: Ambrosia artemisiifolia, pre-emergence, scale 0 to 100, read-out: Plant response rating, Ragweed
Procedure, shortened: as §1

[6] = test system: sandbur (southern sandbur, Cenchrus echinatus); conditions: Cenchrus echinatus, scale 0 to 100, read-out: Plant response rating, Sandbur
Procedure, shortened: as §1

soybean (Glycine max) = conditions: Glycine max, scale 0 to 100, read-out: Plant response rating, Soybean
Procedure, shortened: as §1

[7] = test system: surinam grass (Brachiaria decumbens); conditions: Urochloa decumbens, pre-emergence, scale 0 to 100, read-out: Plant response rating, Surinam Grass
Procedure, shortened: as §1

[8] = test system: waterhemp (common waterhemp, Amaranthus rudis); conditions: Amaranthus tuberculatus, scale 0 to 100, read-out: Plant response rating, Waterhemp
Procedure, shortened: as §1

[9] = post-emergence, 8 g ai/ha Postemergence
[10] = post-emergence, 16 g ai/ha Postemergence
[11] = post-emergence, 31 g ai/ha Postemergence
[12] = post-emergence, 62 g ai/ha Postemergence
[13] = post-emergence, 125 g ai/ha Postemergence
[14] = pre-emergence, 8 g ai/ha Preemergence
[15] = pre-emergence, 16 g ai/ha Preemergence
[16] = pre-emergence, 31 g ai/ha Preemergence
[17] = pre-emergence, 125 g ai/ha Preemergence

FC(F)c1cc(-c2ccccc2Oc2ncc(Br)cn2)no1 [Compound 62, 5-bromo-2-[2-[5-(difluoromethyl)-3-isoxazolyl]phenoxy]pyrimidine]
90%: pest or weed control at 8 g/ha [4, 9] | pest or weed control at 16 g/ha [8, 10]
25%: pest or weed control at 31 g/ha ([2]; 31 g ai/ha Preemergence) | pest or weed control at 31 g/ha ([5]; 31 g ai/ha Preemergence)
80%: pest or weed control at 16 g/ha [4, 15] | pest or weed control at 8 g/ha [8, 9] | pest or weed control at 8 g/ha [8, 14]
95%: pest or weed control at 31 g/ha [4, 11]
40%: pest or weed control at 125 g/ha ([1]; 125 g ai/ha Preemergence) | pest or weed control at 62 g/ha ([5]; Preemergence) | plant injury at 31 g/ha (soybean (Glycine max); [11]) | plant injury at 125 g/ha (soybean (Glycine max); [17])
85%: plant injury at 125 g/ha (soybean (Glycine max); [13]) | pest or weed control at 16 g/ha [8, 15]
75%: pest or weed control at 31 g/ha [4, 16]
70%: pest or weed control at 62 g/ha ([2]; 62 g ai/ha Preemergence) | pest or weed control at 16 g/ha [4, 10]
50%: pest or weed control at 125 g/ha ([3]; 125 g ai/ha Preemergence)
0%: pest or weed control at 8 g/ha ([2]; 8 g ai/ha Preemergence) | pest or weed control at 16 g/ha ([2]; 16 g ai/ha Preemergence) | pest or weed control at 8 g/ha ([3]; 8 g ai/ha Preemergence) | pest or weed control at 16 g/ha ([3]; 16 g ai/ha Preemergence) | pest or weed control at 31 g/ha ([3]; 31 g ai/ha Preemergence) | pest or weed control at 62 g/ha ([3]; Preemergence) | pest or weed control at 8 g/ha ([5]; 8 g ai/ha Preemergence) | pest or weed control at 8 g/ha [6, 9] | pest or weed control at 16 g/ha [6, 10] | pest or weed control at 31 g/ha [6, 11] | pest or weed control at 62 g/ha [6, 12] | pest or weed control at 125 g/ha [6, 13] | pest or weed control at 8 g/ha [6, 14] | pest or weed control at 16 g/ha [6, 15] | pest or weed control at 31 g/ha [6, 16] | pest or weed control at 62 g/ha ([6]; pre-emergence, Preemergence) | plant injury at 8 g/ha (soybean (Glycine max); [14]) | plant injury at 16 g/ha (soybean (Glycine max); [15]) | plant injury at 31 g/ha (soybean (Glycine max); [16]) | pest or weed control at 8 g/ha ([7]; 8 g ai/ha Preemergence) | pest or weed control at 16 g/ha ([7]; 16 g ai/ha Preemergence)
20%: pest or weed control at 31 g/ha ([1]; 31 g ai/ha Preemergence) | pest or weed control at 16 g/ha ([5]; 16 g ai/ha Preemergence) | plant injury at 16 g/ha (soybean (Glycine max); [10])
15%: pest or weed control at 31 g/ha ([7]; 31 g ai/ha Preemergence) | pest or weed control at 62 g/ha ([7]; Preemergence)
100%: pest or weed control at 62 g/ha [4, 12] | pest or weed control at 125 g/ha [4, 13] | pest or weed control at 125 g/ha [4, 17] | pest or weed control at 62 g/ha ([4]; pre-emergence, Preemergence) | pest or weed control at 31 g/ha [8, 11] | pest or weed control at 62 g/ha [8, 12] | pest or weed control at 125 g/ha [8, 13] | pest or weed control at 125 g/ha [8, 17] | pest or weed control at 62 g/ha ([8]; pre-emergence, Preemergence)
35%: pest or weed control at 62 g/ha ([1]; Preemergence) | pest or weed control at 125 g/ha ([5]; 125 g ai/ha Preemergence) | pest or weed control at 125 g/ha [6, 17]
98%: pest or weed control at 125 g/ha ([2]; 125 g ai/ha Preemergence) | pest or weed control at 31 g/ha [8, 16]
10%: pest or weed control at 8 g/ha [4, 14] | plant injury at 8 g/ha (soybean (Glycine max); [9]) | plant injury at 62 g/ha (soybean (Glycine max); pre-emergence, Preemergence) | pest or weed control at 125 g/ha ([7]; 125 g ai/ha Preemergence)
65%: plant injury at 62 g/ha (soybean (Glycine max); [12])
